Experimental data from patent US20140088144A1, “INHIBITING MICROBIAL INFECTIONS” (THE UNIVERSITY OF KANSAS, priority 2012, published 2014).
pIC50: −log10 of the molar value.

Key:
MBP-Rns = target: T1, MBP-Rns (Escherichia coli, UniProt P16114); experiment: EMSA in vitro DNA binding by MBP-Rns; type: biochemical, Enterotoxigenic E. coli
T1 construct: made in house
Text: FIGS. 9A-9B show inhibition of MBP-Rns and MBP-VirF by Compound 1. Quantification of EMSA of MBP-Rns (FIG. 9A) or example EMSA of MBP-VirF (FIG. 9B) DNA binding with the indicated inhibitor concentrations [micromolar]. F is Free DNA.
The compounds of the invention can be used for inhibition of virulence in vivo and in vitro activation by Rns and VirF.

RhaS-GB1^201b = target: T2, RhaS-GB1^201b (Escherichia coli, UniProt P09377, L201R); experiment: EMSA in vitro DNA binding by RhaS-GB1^201b; type: biochemical, E. coli
T2 construct: solubility-enhancement tag to the C-terminus of full-length RhaS L201R; GB1basic (basic variant of GB1 solubility-enhancement tag) (C); made in house; host or cells: E. coli Acella, pET21-derived plasmid
T2 sequence (P09377 whole entry L201R): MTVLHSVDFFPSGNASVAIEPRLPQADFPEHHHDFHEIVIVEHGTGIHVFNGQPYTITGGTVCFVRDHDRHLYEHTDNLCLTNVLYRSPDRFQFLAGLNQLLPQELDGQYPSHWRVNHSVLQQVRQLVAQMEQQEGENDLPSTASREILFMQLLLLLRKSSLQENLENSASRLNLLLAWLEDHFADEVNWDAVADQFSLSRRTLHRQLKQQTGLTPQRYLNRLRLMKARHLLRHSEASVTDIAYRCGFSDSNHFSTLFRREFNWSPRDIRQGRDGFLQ
Text: All proteins for this study were expressed in E. coli. Untagged CRP was purified by Ni^2+-affinity chromatography as described. Lad protein was purified by ammonium sulfate precipitation and phosphocellulose column chromatography as described. RhaS-GB1^201b and GB1^b-RhaR were purified by Ni^2+-affinity chromatography. Briefly, plasmids derived from pET21 and expressing RhaS-GB1^201b and GB1^b-RhaR were transformed into competent cells of strains Acella™ (MoBiTec, Gottingen, Germany) or ArcticExpress(DE3) (Agilent Technologies, Santa Clara Calif.), respectively. The cells were grown in 1 liter TY plus ampicillin and rhamnose. Gentamycin was also added for GB1^b-RhaR. The cells were grown to OD600 of 0.5, transferred to a 15° C. shaker, 0.1 mM IPTG was added, and then incubated overnight. Cells were harvested by centrifugation and then resuspended in 30 mL of cold binding buffer (20 mM Tris, 500 mM NaCl, 5 mM imidazole, pH 7.9) plus L-rhamnose. […]
IRD700- and DY682-labeled oligos were from Eurofins MWG Operon. […] EMSA gels were imaged using an Odyssey infrared imager (LI-COR, Lincoln, Nebr.), and quantified using the Odyssey software, version 3.0.30. […] Inhibition values were calculated and graphs were drawn as for in vivo dose-response experiments.

T1 sequence (P16114 whole entry): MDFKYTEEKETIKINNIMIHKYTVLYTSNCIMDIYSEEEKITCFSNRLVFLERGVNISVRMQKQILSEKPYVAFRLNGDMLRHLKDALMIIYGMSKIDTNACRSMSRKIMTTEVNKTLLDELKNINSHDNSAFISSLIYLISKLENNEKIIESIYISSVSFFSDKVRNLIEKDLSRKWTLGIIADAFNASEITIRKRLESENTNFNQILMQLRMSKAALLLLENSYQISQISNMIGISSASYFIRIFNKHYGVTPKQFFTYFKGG

For `CCCCN1C=C(c2ccc3ccccc3n2)C(C[N+](=O)[O-])c2ccccc21` (stereo not drawn) [Compound 1, 1-butyl-4-(nitromethyl)-3-quinolin-2-yl-4H-quinoline], the “inhibition of in vitro DNA binding by purified Rns” value (MBP-Rns) was “similarly inhibits”, the pIC50 (RhaS-GB1^201b) was about 4.15 and the “inhibition of DNA binding by RhaS-GB1^201b” value (RhaS-GB1^201b; EMSA, dose-dependent) was “fully inhibit DNA binding”.
